Results taken from patent US20220362182A1, “METHODS FOR REVERSING HEPATIC STEATOSIS” (BRIGHTSEED, INC., priority 2020, published 2022).
Entries after “also recorded” stand apart in the source; their conditions may differ.

Experiments:
T6PNE cells = test: fat clearance assay in palmitate-treated T6PNE cells (Oil Red O, Nile Red, triglyceride); assay type: cell-based, human; settings: for fat clearance (stored fat by Oil Red O and Nile Red staining): 0.25 mM palmitate for 2 days; for effect on fat clearance induced by NCT: palmitate, inhibitor or siRNA plus NCT
Experimental: Oil red O and Nile Red staining were used to measure lipid accumulation. Oil Red O staining was done as known in the art. Briefly, fixed cells were incubated with Oil Red O solution (Poly Scientific) for 3 h, followed by photomicrography (Olympus, IX71). For Nile Red staining, dye (1: 500 in PBS from 1 mg/ml in ethanol stock, Sigma) was added for 30 mins and DAPI added for 10 mins at room temperature. Quantification of Nile Red staining was done with a Celigo imaging cytometer (Nexcelom Bioscience). More than 4000 cells were analyzed for each quantification. The number of Nile Redpositive cells was normalized to the DAPI-positive cell number for each well and fold change was calculated relative to a DMSO control well.
Palmitate (150 mM) (Sigma-Aldrich) was prepared in 50% ethanol and precomplexed with 15% fatty acid-free BSA (Research Organics, Cleveland, Ohio, USA) in a 37 C water shaker. BSA-precomplexed palmitate was used as a 12 mM stock solution for all assays with a final concentration of 0.25 mM palmitate in cell culture medium.
siRNAs were purchased from Ambion. For transfections, 24 μL of each siRNA (1 μM stock) was mixed with 90 μL of a 1:100 dilution of Lipofectamine RNAi MAX (Invitrogen, Waltham, Mass., USA) in Opti-MEM. Transfection was done in 24 well plates (Thermo Fisher Scientific, Waltham, Mass., USA), by incubation with cells for 30 min. at room temperature. One day after transfection, cells were transferred to 96 well plates (2000 cells per well) and incubated at 37° C. for an additional day. Forty-eight hours after transfection, either palmitate-BSA complex or BSA control plus or minus compounds was added for 2 days. For validation of siRNAs, transfected cells were harvested for RNA purification and QPCR for each gene 2 days after transfection.
The bicinchoninic acid (BCA) protein assay kit assay (Thermo scientific) was used to measure protein amount for DART, Western blotting and TG assays. Absorbance at 550 nm was determined using a plate reader.

p62 = p62 Western blot in T6PNE cells; assay type: cell-based, human; settings: NCT 10 μM, RA 10 μM, fenretinide
Experimental: (§1) Whole-cell extracts were prepared by incubation in RIPA buffer (Invitrogen) containing protease inhibitors (Calbiochem, San Diego, Calif.). Protein ([…]) was separated on 12% or 16% Tri-Glycine gels (Invitrogen) and transferred to Immobilon P membrane (0.2 μm pore, Millipore). After 1 h in phosphate-buffered saline-Tween (PBST) with 3% milk, membrane was incubated with antibodies to HNF4α (mouse, Novus, 1:1000), LC3B (rabbit, Novus, 1:500), p62 (SQSTM1, mouse, Santa Cruz, 1:1000) or β-actin (mouse, Santa Cruz, 1:2000), followed by secondary antibody conjugated to horseradish peroxidase (1:5000, Jackson Immune).

dihydroceramides = test: lipidomic analysis of ceramides and dihydroceramides in T6PNE cells; assay type: cell-based, human
Experimental: Ceramides and dihydroceramides were measured in the UCSD Lipidomics Core Facility as previously described (Quehenberger et al.). Briefly, samples were extracted using the butanol: methanol (BUME) method. The lipid layer was collected and run on a Thermo-Vanquish UPLC (Thermo Scientific) with a Cortecs T3 (C18), 2.1 mm×150 mm; 1.8 uT3 column and a binary solvent system. Mass spectrometry employed a Thermo Q Exactive instrument with MS/MS data dependent acquisition scan mode and LipidSearch software (Thermo Fisher Scientific).

[1] = clinical trials for type 2 diabetes; cited from earlier work
HNF4α [2] = biological target: T1, HNF4α (Homo sapiens, UniProt P41235); test: T6PNE insulin promoter assay (human insulin promoter-GFP transgene); assay type: cell-based; set-up: endogenous in cells; host or cells: T6PNE cells; settings: T6PNE cells, GFP-positive cells relative to DMSO
T1 sequence (P41235 1-474): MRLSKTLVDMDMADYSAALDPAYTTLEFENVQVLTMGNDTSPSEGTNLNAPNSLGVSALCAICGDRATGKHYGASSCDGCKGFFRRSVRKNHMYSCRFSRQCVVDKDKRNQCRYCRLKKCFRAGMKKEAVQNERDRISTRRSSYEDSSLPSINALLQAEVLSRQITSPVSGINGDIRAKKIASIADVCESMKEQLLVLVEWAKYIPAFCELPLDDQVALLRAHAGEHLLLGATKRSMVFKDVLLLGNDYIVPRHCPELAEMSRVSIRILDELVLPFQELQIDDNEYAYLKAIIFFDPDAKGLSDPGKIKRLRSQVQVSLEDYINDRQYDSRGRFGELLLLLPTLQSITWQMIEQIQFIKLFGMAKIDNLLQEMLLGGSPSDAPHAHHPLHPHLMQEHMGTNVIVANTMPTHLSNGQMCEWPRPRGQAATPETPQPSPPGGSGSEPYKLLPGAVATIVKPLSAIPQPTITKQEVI
Experimental: The T6PNE insulin promoter assay has been described previously and was performed here with slight modifications as follows: T6PNE cells were seeded at 200 cells per well in 384-well tissue culture plates (Greiner Bio-One) in the presence of 0.5 μM tamoxifen. Compounds described herein in DMSO were dispensed with an Echo 555 Acoustic Liquid Handler (Beckman Coulter). Three days after compound addition, cells were fixed in 4% paraformaldehyde (USBio) for 15 min and stained with DAPI (0.167 μg/ml, Invitrogen). Blue (DAPI) and green (GFP) channels were imaged using a Celigo imaging cytometer (Nexcelom Bioscience). The number of GFPpositive cells was normalized to the DAPI-positive cell number and fold change calculated relative to the DMSO control.
T6PNE cells were maintained in RPMI (5.5mM glucose, Corning) supplemented with 10% fetal bovine serum (FBS, Sigma-Aldrich) and 1% penicillin-streptomycin (pen-strep, Gibco). Cells were maintained in 5% CO2 at 37° C. For the insulin promoter assay, 0.5 μM tamoxifen (Sigma-Aldrich) was added to T6PNE cell culture media. HepG2 or HeLa cells were cultured in DMEM (high glucose, Corning) supplemented with 10% FBS and 1% pen-strep and maintained at 5% CO2, 37° C.

human insulin promoter = test: modified insulin promoter assay repressed with palmitate; assay type: cell-based; settings: insulin promoter activity repressed with palmitate
Experimental: Alverine and benfluorex were ascertained in a modification of the insulin promoter assay in which the level of insulin promoter activity was repressed with palmitate. […] Cells were treated with 0.25 mM palmitate for 2 days in the presence and absence of NCT or NFT (10 μM).

CYP26A1 mRNA = CYP26A1 mRNA in T6PNE cells; assay type: cell-based, human; settings: 2 days, 0.25 mM palmitate, NCT 10 μM, 4-OH-RA 20 μM
Experimental: Quantitative PCR (Q-PCR) from in vitro cell culture experiments used total RNA purified using RNeasy Kits (Qiagen). For liver tissue samples, total RNA was isolated using Trizol (Invitrogen) and prepared for RNAseq (mouse liver DMSO and NCT, N=3). cDNA was amplified using 3 μg of total RNA using qScript cDNA SuperMix (Quanta BioSciences, Beverly, Mass., USA). QPCR analysis was performed using SYBR® Select Master Mix (Applied Biosystems) and ABI 7900HT (Applied Biosystems, Thermo Fisher Scientific). The Ct values of mRNA expression were then normalized to the 18 s rRNA values and are expressed as fold change over samples from mice fed normal chow for in vivo experiments or DMSO controls for cell culture experiments.

HNF4α [3] = biological target: T1, HNF4α; test: DARTS assay (HNF4α protease sensitivity) in HepG2 cells; assay type: binding; set-up: Total cell protein was extracted; endogenous in cells; host or cells: HepG2 cells; settings: 40 or 80 μM for 16 h, subtilisin
Experimental: DARTS assays were conducted as described in the art. HepG2 cells were treated with DMSO, BI6015, NCT, NFT at a concentration of 40 or 80 μM for 16 hr. Total cell protein was extracted and measured by BCA protein assay (Thermo Scientific). Each sample was split into two aliquots for proteolysis without (−) or with (+) Subtilisin (Sigma-Aldrich). Forty […] of cell lysate was incubated with or without protease (40 ng/ml subtilisin) for 35 min at room temperature.
as §1

HNF4α [4] = settings: previous finding, cited from earlier work

dihydroceramide
fat clearance (stored fat by Oil Red O and Nile Red staining) (T6PNE cells): active at inducing fat clearance

CC1=C(/C=C/C(C)=C/C=C/C(C)=C/C(=O)Nc2ccc(O)cc2)C(C)(C)CCC1 [Fenretinide, fenretinide, reference compound]
fat clearance (stored fat by Oil Red O and Nile Red staining) (T6PNE cells): strongly positive | fat clearance (stored fat by Oil Red O and Nile Red staining) (T6PNE cells; listed as fenretinide): induced fat clearance from T6PNE cells | p62 protein expression normalized to actin (p62): had a statistically significant effect | dihydroceramide production (dihydroceramides; 2 days after treatment): induced multiple identical dihydroceramides | ceramide (Cer)/dihydroceramide (DH-Cer) ratio (dihydroceramides; NCT+RA 10 μM, fenretinide 5 μM): substantial decrease

CCCCCCCCCCCCC/C=C/[C@@H](O)[C@@H](N)COP(=O)(O)O [S1P, sphingosine-1-phosphate]
fat clearance (stored fat by Oil Red O and Nile Red staining) (T6PNE cells): did not have any effect on fat storage; also recorded: neither S1P nor FTY720 had any effect on fat clearance

CC(Cc1cccc(C(F)(F)F)c1)NCCOC(=O)c1ccccc1 (centres unmarked) [benfluorex, reference compound]
HbA1c [1]: effective at reducing HbA1c | insulin promoter activity / HNF4α activation (HNF4α [2]): relatively weak activators; also recorded: fairly weak HNF4α activators | fatty acid-mediated repression of the human insulin promoter (human insulin promoter): reversed the fatty acid-mediated repression of the human insulin promoter

O=C(Oc1nsnc1N1CCCCC1)N1CCCCC1 [Lalistat 2]
effect on fat clearance induced by NCT (T6PNE cells): eliminated the ability of N-trans-caffeoyltyramine to effect fat clearance; also recorded: inhibited the ability of NCT to promote fat clearance | effect on fat clearance induced by NCT (T6PNE cells; listed as Lalistat2): inhibits the effect of NCT on fat clearance

CCCCCCCCc1ccc(CCC(N)(CO)CO)cc1 [FTY720]
fat clearance (stored fat by Oil Red O and Nile Red staining) (T6PNE cells): neither S1P nor FTY720 had any effect on fat clearance

Nn1nnc2ccccc21 [ABT]
effect on fat clearance induced by NCT (T6PNE cells): inhibited fat clearance by NCT

CCCCCCCCCCCCCC1=C([C@H](O)[C@@H](CO)NC(=O)CCCCCCC)C1 [GT-11, N-[(1R,2S)-2-hydroxy-1-hydroxymethyl-2-(2-tridecyl-1-cyclopropenyl)ethyl] octanamide]
fat clearance (stored fat by Oil Red O and Nile Red staining) (T6PNE cells): strongly positive; also recorded: increase fat clearance

CCN(CCCc1ccccc1)CCCc1ccccc1 [alverine, reference compound]
insulin promoter activity / HNF4α activation (HNF4α [2]): relatively weak activators; also recorded: fairly weak HNF4α activators | fatty acid-mediated repression of the human insulin promoter (human insulin promoter): reversed the fatty acid-mediated repression of the human insulin promoter

CC1=C(/C=C/C(C)=C/C=C/C(C)=C/C(=O)O)C(C)(C)CCC1O (centres unmarked) [4-OH RA, reference compound]
CYP26A1 mRNA level (CYP26A1 mRNA): induced an increase in CYP26A1 mRNA | fat clearance (stored fat by Oil Red O and Nile Red staining) (T6PNE cells): induced fat clearance from T6PNE cells

CCC(CC)C(c1ccc(Nc2nc3ccccc3s2)cc1)n1cncn1 (centres unmarked) [talarazole]
effect on fat clearance induced by NCT (T6PNE cells): inhibited fat clearance by NCT

Cc1ccc([N+](=O)[O-])cc1S(=O)(=O)n1c(C)nc2ccccc21 [BI6015]
HNF4α proteolytic sensitivity / conformational change (HNF4α [3]): induced a conformational change in HNF4α | hepatic steatosis (HNF4α [4]; in vitro and in vivo): caused hepatic steatosis in vitro and in vivo | HNF4α expression in the liver (HNF4α [4]; in vivo): caused loss of HNF4a expression in the liver; also recorded: caused loss of HNF4α expression in the liver
